Assay results from patent publication US20050250738A1, “Taste-masked formulations containing sertraline and sulfoalkyl ether cyclodextrin” (priority 2004, published 2005).

What was measured:
[1] = Phase solubility of sertraline with cyclodextrins; format: physicochemical; conditions: about 25° C., pH not adjusted, higher cyclodextrin concentration (above about 0.08 M)
Experimental: At lower molar concentrations of cyclodextrin (less than about 0.08 M), the phase solubility curve for each cyclodextrin is very similar.
The phase solubility curves for sertraline with SAE-CD, HP-β-CD and γ-CD were determined according to procedures well known in the art (Higuchi et al. in Phase Solubility Techniques, in Advances in Analytical Chemistry and Instrumentation (Ed. C. N. Reilly, John Wiley & Sons Inc., Vol. 4 (1965), pg. 117-212) the relevant disclosure of which is hereby incorporated by reference). The results are depicted in FIG. 1.

[2] = Solubility of sertraline HCl versus pH in SBE-β-CD solutions; format: physicochemical; conditions: 0, 10% or 20% sulfobutylether-β-cyclodextrin (DS=6.7), buffers pH 1, 3, 5, 7
Experimental: Aqueous 0.01M buffers were prepared at pH values of 1 (HCl), 3 and 5 (citric acid/sodium citrate), and 7 (monobasic potassium phosphate) and used to prepare solutions containing 0, 10% or 20% sulfobutylether-β-cyclodextrin (DS=6.7). Excess sertraline HCl was added to each of the solutions and allowed to mix for three days. The solutions were centrifuged and the supernatants analyzed for sertraline content and final pH.

For “2-hydroxypropyl-β-cyclodextrin [HP-β-CD]”, the “Phase solubility of sertraline with cyclodextrin” value [1] was “outperform the γ-CD”.
With “Sulfobutyl Ether-β-Cyclodextrin [SBE7-β-CD]” the “Phase solubility of sertraline with cyclodextrin” value [1] was “outperform the γ-CD”.
In the case of `CN[C@H]1CC[C@@H](c2ccc(Cl)c(Cl)c2)c2ccccc21` [sertraline, (1S-cis)-4-(3,4-dichlorophenyl)-1,2,3,4-tetrahydro-N-methyl-1-naphthalenamine], the “Effect of solution pH upon solubility” value [2] is reported as “independent of the pH over the range evaluated”.
